In general, IC50 refers to the concentration needed to halve the response being measured.

The source of these data is patent publication US8058292B2, “Therapeutic agents useful for treating pain” (Purdue Pharma L.P., priority 2003, dated 2011).

The target in this assay is T1, rat mGluR5 (Rattus norvegicus, UniProt P31424).
T1 construct: expressed in transfected cells; host or cells: CHO cells (CHO-rat mGluR5 line, kept under Geneticin selection)
Put plainly: Calcium mobilization flux (FLIPR) in CHO-rat mGluR5 cells in the presence of glutamate. The following applies: 10 uM glutamate, Fluo 4 calcium flux, mean of 4 experiments. It is filed as cell-based. As to the method: 40,000 CHO-rat mGluR5 cells/well were plated into 96 well plate (Costar 3409, Black, clear bottom, 96 well, tissue culture treated) for an overnight incubation in Dulbecco's Modified Eagle's Medium (DMEM, pH 7.4) and supplemented with glutamine, 10% FBS, 1% Pen/Strep, and 500 ug/mL Geneticin. CHO-rat mGluR5 cells were washed and treated with Optimem medium and were incubated for 1-4 hours prior to loading cells. […]
The plates containing the CHO-rat mGluR5 cells were transferred to a FLIPR for the assessment of calcium mobilization flux in the presence of glutamate and in the presence or absence of test compounds. After monitoring fluorescence for 15 seconds to establish a baseline, DMSO solutions containing various concentrations of the test compound diluted in loading buffer (0.05 mL of 4× dilutions for the competition curves) were added to the cell plate and fluorescence was monitored for 2 minutes. […] Plate fluorescence was then monitored for an additional 60 seconds after agonist addition. […] In each experiment, fluorescence was monitored as a function of time and the data analyzed using Microsoft Excel and GraphPad Prism. […] In each experiment, each data point was determined at least two times.

SMILES strings stand for the structures.

T1 sequence (P31424 21-1203): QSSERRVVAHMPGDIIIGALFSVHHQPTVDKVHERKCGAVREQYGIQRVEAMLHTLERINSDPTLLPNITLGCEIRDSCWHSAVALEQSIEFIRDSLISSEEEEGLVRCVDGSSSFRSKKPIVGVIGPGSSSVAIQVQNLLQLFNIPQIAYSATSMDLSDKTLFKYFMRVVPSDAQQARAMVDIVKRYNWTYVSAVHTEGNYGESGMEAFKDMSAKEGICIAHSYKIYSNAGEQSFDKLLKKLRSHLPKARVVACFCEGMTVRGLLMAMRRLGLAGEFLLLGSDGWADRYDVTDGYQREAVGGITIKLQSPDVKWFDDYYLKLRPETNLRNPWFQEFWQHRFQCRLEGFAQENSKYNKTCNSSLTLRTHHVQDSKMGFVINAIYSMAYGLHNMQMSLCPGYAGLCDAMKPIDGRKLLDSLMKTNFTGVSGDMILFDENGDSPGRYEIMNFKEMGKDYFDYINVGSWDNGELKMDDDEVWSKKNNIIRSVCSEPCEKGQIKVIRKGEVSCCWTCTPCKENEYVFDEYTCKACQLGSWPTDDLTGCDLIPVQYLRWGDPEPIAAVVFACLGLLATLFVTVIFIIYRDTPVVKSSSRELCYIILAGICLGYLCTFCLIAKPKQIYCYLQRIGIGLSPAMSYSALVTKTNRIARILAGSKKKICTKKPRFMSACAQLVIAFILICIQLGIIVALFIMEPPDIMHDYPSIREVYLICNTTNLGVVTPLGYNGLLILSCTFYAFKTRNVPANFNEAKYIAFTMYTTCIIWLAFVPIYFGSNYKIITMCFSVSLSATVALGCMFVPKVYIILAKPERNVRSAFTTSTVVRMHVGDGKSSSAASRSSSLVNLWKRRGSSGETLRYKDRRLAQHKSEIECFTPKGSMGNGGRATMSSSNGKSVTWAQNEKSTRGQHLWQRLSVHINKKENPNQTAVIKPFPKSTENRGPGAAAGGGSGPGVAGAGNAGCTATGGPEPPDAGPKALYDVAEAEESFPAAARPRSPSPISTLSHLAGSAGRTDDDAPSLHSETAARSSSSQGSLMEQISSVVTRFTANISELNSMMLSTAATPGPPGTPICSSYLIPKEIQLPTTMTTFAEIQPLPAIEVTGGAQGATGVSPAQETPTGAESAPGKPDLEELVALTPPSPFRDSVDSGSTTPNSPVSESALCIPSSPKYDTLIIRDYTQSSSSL

With `O=C(C#Cc1ccccc1)N1CC(Nc2ncccc2[N+](=O)[O-])C1` [AAB(Ib)], the half-maximal inhibitory concentration (IC50) amounted to 0.11 ± 0.0179 µM.
